Experimental data published in article PMC6407587, “Inhibition potential of phenolic constituents from the aerial parts of Tetrastigma hemsleyanum against soluble epoxide hydrolase and nitric oxide synthase” (Journal of Enzyme Inhibition and Medicinal Chemistry, 2019).
Like-named read-outs stand apart in the source and are kept apart here.

Tests used:
[1] = target: T1, sEH (Homo sapiens, UniProt P34913); assay: sEH inhibitory activity, fluorescence assay with PHOME substrate; assay type: biochemical; conditions: for IC50: PHOME substrate, dose-dependent response curve; for Inhibition on sEH at 100 µM (%) / inhibition at 100 µM: 100 µM compound, tested three times
T1 sequence (P34913 1-555): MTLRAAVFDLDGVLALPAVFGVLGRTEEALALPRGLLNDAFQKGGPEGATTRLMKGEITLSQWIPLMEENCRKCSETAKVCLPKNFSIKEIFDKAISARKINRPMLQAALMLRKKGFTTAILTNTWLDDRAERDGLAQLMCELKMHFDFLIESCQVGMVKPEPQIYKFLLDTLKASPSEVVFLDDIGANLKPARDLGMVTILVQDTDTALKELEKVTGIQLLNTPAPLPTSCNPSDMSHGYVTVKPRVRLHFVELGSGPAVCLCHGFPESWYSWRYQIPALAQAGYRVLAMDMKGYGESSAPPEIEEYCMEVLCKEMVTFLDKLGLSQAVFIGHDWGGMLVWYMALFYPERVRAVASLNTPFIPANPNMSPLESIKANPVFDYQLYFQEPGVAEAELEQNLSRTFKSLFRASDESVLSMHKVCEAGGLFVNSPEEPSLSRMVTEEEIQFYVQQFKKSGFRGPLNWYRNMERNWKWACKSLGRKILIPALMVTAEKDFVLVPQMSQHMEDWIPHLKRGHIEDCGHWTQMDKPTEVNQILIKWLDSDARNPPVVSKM

[2] = target: T1, sEH; assay: sEH binding mechanism, Dixon and Lineweaver-Burk plots at different substrate and inhibitor concentrations; assay type: biochemical; conditions: Dixon plots
[3] = system: LPS-induced NO production in macrophage RAW 264.7 cells (iNOS); assay: Inhibition of LPS-induced NO production in RAW 264.7 macrophages (Griess reaction, measure of iNOS activity); assay type: cell-based; conditions: Mus musculus;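 further: cells pretreated with compound for 2 h, then stimulated 24 h with LPS at 500 ng/ml, supernatant nitrite quantified by absorbance at 550 nm against a nitrite standard curve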
[4] = system: RAW 264.7 cells;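 further: viability gauged by mitochondrial reductase turning MTT into formazan, optical density read at 570 nm, with untreated control cells set as 100% viability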
[5] = 50 µM compound, LPS-stimulated RAW264.7 cells, read-out: Inhibition of NO production at 50 µM (%)

SMILES: COC(=O)C1(O)CC(O)C(OC(=O)C=Cc2ccc(O)c(O)c2)C(O)C1 (centres unmarked) [Compound 8]
- IC50 [1]: 9.4 ± 0.2 µM
- Ki [2]: 13.7 µM
- inhibition at 50 µM [3, 5]: 25.2%
- Cytotoxicity in RAW 264.7 cells (MTT) [4]: did not exhibit significant cytotoxicity

SMILES: COc1cc([C@H]2Oc3c(OC)cc(CCCO)cc3[C@@H]2CO[C@@H]2O[C@H](CO)[C@@H](O)[C@H](O)[C@H]2O)ccc1O [Compound 20]
- Inhibition on sEH at 100 µM (%) [1]: N.I
- inhibition at 50 µM [3, 5]: 13.9%
- Cytotoxicity in RAW 264.7 cells (MTT) [4]: did not exhibit significant cytotoxicity

SMILES: COc1cc([C@@H]2Oc3c(OC)cc(CCCO)cc3[C@H]2CO)cc(OC)c1O [Compound 21]
- Inhibition on sEH at 100 µM (%) [1]: N.I
- inhibition at 50 µM [3, 5]: 16.2%
- Cytotoxicity in RAW 264.7 cells (MTT) [4]: did not exhibit significant cytotoxicity

SMILES: O=C1CC(c2ccc(O)c(O)c2)c2c(O)cc3c(c2O1)CC(O)C(c1ccc(O)c(O)c1)O3 (centres unmarked) [Compound 22]
- inhibition at 100 µM [1]: 31.9 ± 4.5%
- inhibition at 50 µM [3, 5]: 18.3%
- Cytotoxicity in RAW 264.7 cells (MTT) [4]: did not exhibit significant cytotoxicity

SMILES: O=Cc1ccc(O)c(O)c1 [Compound 24]
- inhibition at 100 µM [1]: 38.6 ± 0.2%
- inhibition at 50 µM [3, 5]: 22.2%
- Cytotoxicity in RAW 264.7 cells (MTT) [4]: did not exhibit significant cytotoxicity

SMILES: O=C(O)c1ccc(O)cc1 [Compound 25]
- inhibition at 100 µM [1]: 42 ± 3.9%
- inhibition at 50 µM [3, 5]: 17%
- Cytotoxicity in RAW 264.7 cells (MTT) [4]: did not exhibit significant cytotoxicity

SMILES: COc1ccc(C(=O)O)cc1O [Compound 27]
- inhibition at 100 µM [1]: 17.5 ± 0.2%
- inhibition at 50 µM [3, 5]: 24%
- Cytotoxicity in RAW 264.7 cells (MTT) [4]: did not exhibit significant cytotoxicity

SMILES: O=C(CO)c1ccc(O)cc1 [Compound 28]
- inhibition at 100 µM [1]: 22.1 ± 0.9%
- inhibition at 50 µM [3, 5]: 6.2%
- Cytotoxicity in RAW 264.7 cells (MTT) [4]: did not exhibit significant cytotoxicity

SMILES: O=C(O)/C=C/c1ccc(O)c(O)c1 [Compound 30]
- IC50 [1]: 21 ± 0.4 µM
- inhibition at 50 µM [3, 5]: 21.5%
- Cytotoxicity in RAW 264.7 cells (MTT) [4]: did not exhibit significant cytotoxicity

SMILES: Oc1ccc(/C=C/c2cc(O)cc(O)c2)cc1 [Compound 32]
- IC50 [1]: 6.8 ± 0.9 µM
- IC50 ([3]; RAW264.7, LPS-stimulated RAW264.7 cells, means ± SE, n = 3): 30.6 ± 1.8 µM
- inhibition at 50 µM [3, 5]: 77.7%
- Cytotoxicity in RAW 264.7 cells (MTT) [4]: did not exhibit significant cytotoxicity

SMILES: Oc1ccc(-c2ccc(O)c(O)c2)cc1O [Compound 33]
- inhibition at 100 µM [1]: 19.4 ± 0.8%
- inhibition at 50 µM [3, 5]: 3%
- Cytotoxicity in RAW 264.7 cells (MTT) [4]: did not exhibit significant cytotoxicity

SMILES: OC[C@H]1O[C@@H](OCCc2ccccc2)[C@H](O)[C@@H](O)[C@@H]1O [Compound 34]
- inhibition at 100 µM [1]: 13.3 ± 0.2%
- inhibition at 50 µM [3, 5]: 12.8%
- Cytotoxicity in RAW 264.7 cells (MTT) [4]: did not exhibit significant cytotoxicity

SMILES: OC[C@H]1O[C@@H](OC[C@@H](O)c2ccc(O)cc2)[C@H](O)[C@@H](O)[C@@H]1O [Compound 35]
- inhibition at 100 µM [1]: 10.5 ± 3%
- inhibition at 50 µM [3, 5]: 15.9%
- Cytotoxicity in RAW 264.7 cells (MTT) [4]: did not exhibit significant cytotoxicity

SMILES: CC1OC(OCC2OC(OCCc3ccccc3)C(O)C(O)C2O)C(O)C(O)C1O (centres unmarked) [Compound 36]
- Inhibition on sEH at 100 µM (%) [1]: N.I
- inhibition at 50 µM [3, 5]: 20.9%
- Cytotoxicity in RAW 264.7 cells (MTT) [4]: did not exhibit significant cytotoxicity

SMILES: CC/C=C\CCO[C@@H]1O[C@H](CO)[C@@H](O)[C@H](O)[C@H]1O [Compound 37]
- inhibition at 100 µM [1]: 24.6 ± 3.1%
- inhibition at 50 µM [3, 5]: 14.5%
- Cytotoxicity in RAW 264.7 cells (MTT) [4]: did not exhibit significant cytotoxicity

SMILES: C[C@@H]1CC[C@]2(C(=O)O)CC[C@]3(C)C(=CC[C@@H]4[C@@]5(C)C[C@@H](O)[C@@H](O)C(C)(C)[C@@H]5CC[C@]43C)[C@@H]2[C@]1(C)O [Compound 38]
- inhibition at 100 µM [1]: 39.5 ± 4.1%
- inhibition at 50 µM [3, 5]: 8.9%
- Cytotoxicity in RAW 264.7 cells (MTT) [4]: did not exhibit significant cytotoxicity

SMILES: CC[C@H](/C=C/[C@@H](C)[C@H]1CC[C@H]2[C@@H]3CC=C4C[C@@H](O[C@@H]5O[C@H](CO)[C@@H](O)[C@H](O)[C@H]5O)CC[C@]4(C)[C@H]3CC[C@]12C)C(C)C [Compound 39]
- Inhibition on sEH at 100 µM (%) [1]: N.I
- inhibition at 50 µM ([3]; RAW264.7, read-out: Inhibition of NO production at 50 µM (%)): 20.3%
- Cytotoxicity in RAW 264.7 cells (MTT) [4]: did not exhibit significant cytotoxicity
